The target of data set [1] is T1, cannabinoid CB1 receptor (Mus musculus, UniProt P47746).
T1 construct: from tissue; host or cells: whole animal (mice; male CD1 mice in the gastrointestinal transit model)
Description: model of inhibition of gastrointestinal transit induced by racemic CP55,940 in mice. It counts as in vivo. Conditions: 1 mg/kg per os; 3 hours after administration of the product; CP55,940 0.15 mg/kg ip; male CD1 mice. Here is the method:
The antagonistic activity of the compounds was also shown by means of the model of inhibition of gastrointestinal transit induced by racemic CP55,940 (1RS,3RS,4RS-3-[hydroxy-2-(1,1-dimethylheptyl)phenyl]-4-(3-hydroxypropyl)cyclohexan-1-ol) in mice, according to the method described by Rinaldi-Carmona et al., J. Pharmacol, Exp. Ther. 2004, 310, 905-914. Briefly, male CD1 mice receive the test product per os 30 minutes or 2 hours before administration of the racemic CP55,940 agonist (1RS,3RS,4RS-3-[hydroxy-2-(1,1-dimethylheptyl)phenyl]-4-(3-hydroxypropyl)cyclohexan-1-ol) (0.15 mg/kg ip in 10% Cremophor). After a further 30 minutes, the animals receive a charcoal bolus po. Thirty minutes later, the animals are euthanized (CO2/O2) and the intestine is dissected. The progression of the charcoal bolus in the intestine is expressed as percentage of the total length of the intestine.

In another data set the target is T2, human CB1 receptor (Homo sapiens, UniProt P21554).
T2 construct: U373MG cells naturally expressing the human CB1 receptor; endogenous in cells; host or cells: U373MG cells
Description: intracellular cyclic AMP test in U373MG cells (HTRF cAMP Dynamic Kit). It counts as cell-based. Here is the method:
The compounds according to the invention were the subject of pharmacological tests for determining the activity with respect to human cannabinoid CB1-type receptors. The efficacy of the compounds of formula (I) was determined in a functional test which measures cannabinoid CB1 receptor activity (intracellular cyclic AMP test). The test for detecting intracellular cyclic AMP in U373MG cells naturally expressing the human CB1 receptor was carried out as described in the following reference: Bouaboula et al., 1995, J. Biol. Chem. 270:13973-13980. The HTRF cAMP Dynamic Kit from CisBio was used to quantify the intracellular cyclic AMP. In this test, the IC50 values are between 0.001 μM and 2 μM.

Data set [2] addresses T1, cannabinoid CB1 receptor. Description: model of hypothermia induced by cannabinoid CB1 receptor agonist racemic CP55,940 in mice. The format is in vivo. Conditions: 3 mg/kg po, hypothermia induced by CP55,940 1.25 mg/kg. The procedure:
Other tests consisting in measuring the in vivo activity of the compounds of the invention were carried out. The antagonist activity of said compounds was shown by means of the model of hypothermia induced by a cannabinoid CB1 receptor agonist (racemic CP55,940 (1RS,3RS,4RS)-3-[hydroxy-2-(1,1-dimethylheptyl)phenyl]-4-(3-hydroxypropypcyclohexan-1-ol) at a dose of 1.25 mg/kg, in mice, according to the method described by R. G. Pertwee in Marijuana 84, Harvey D. J. eds, Oxford IRL Press, 263-277 (1985).

Molecules are shown by their SMILES. Where two headings read alike, the source gives them in different places.

T1 sequence (P47746 whole entry): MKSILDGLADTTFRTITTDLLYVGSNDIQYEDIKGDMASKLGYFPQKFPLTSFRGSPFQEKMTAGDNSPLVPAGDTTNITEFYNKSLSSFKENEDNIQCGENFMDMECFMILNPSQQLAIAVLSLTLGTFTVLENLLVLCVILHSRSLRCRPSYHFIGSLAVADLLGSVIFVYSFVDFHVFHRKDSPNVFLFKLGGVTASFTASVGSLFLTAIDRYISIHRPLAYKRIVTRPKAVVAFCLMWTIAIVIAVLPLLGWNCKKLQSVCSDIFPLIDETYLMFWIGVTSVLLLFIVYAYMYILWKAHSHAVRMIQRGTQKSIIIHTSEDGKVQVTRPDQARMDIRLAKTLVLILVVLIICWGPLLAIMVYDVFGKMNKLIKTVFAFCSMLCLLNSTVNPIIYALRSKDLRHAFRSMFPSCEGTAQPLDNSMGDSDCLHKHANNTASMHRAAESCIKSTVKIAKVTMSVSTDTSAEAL
T2 sequence (P21554 whole entry): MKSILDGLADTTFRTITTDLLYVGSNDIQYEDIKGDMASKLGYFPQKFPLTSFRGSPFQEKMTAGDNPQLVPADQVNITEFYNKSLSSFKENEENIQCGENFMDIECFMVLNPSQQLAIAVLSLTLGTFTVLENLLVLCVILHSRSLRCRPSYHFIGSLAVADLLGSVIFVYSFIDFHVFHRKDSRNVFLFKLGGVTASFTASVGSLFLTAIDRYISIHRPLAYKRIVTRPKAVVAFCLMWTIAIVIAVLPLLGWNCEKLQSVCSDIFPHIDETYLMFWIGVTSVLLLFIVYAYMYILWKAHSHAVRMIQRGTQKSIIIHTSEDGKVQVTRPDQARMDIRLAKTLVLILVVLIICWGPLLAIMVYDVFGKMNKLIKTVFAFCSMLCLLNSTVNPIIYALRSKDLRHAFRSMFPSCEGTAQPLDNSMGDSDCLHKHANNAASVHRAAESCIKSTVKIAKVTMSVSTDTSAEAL

Usually melting point stands for the temperature of the solid-liquid transition. The term IC50 denotes the concentration that gives 50% inhibition. Take `CS(=O)(=O)N(c1cccc(C(=O)Nc2ccon2)c1)C1CN(C(c2ccc(Cl)cc2)c2ccc(Cl)cc2)C1` [Compound 5, 3-[{1-[bis(4-chlorophenyl)methyl]azetidin-3-yl}(methylsulphonyl)amino]-N-(isoxazol-3-yl)-benzamide]: the melting point is 218 °C. The percentages of inhibition at cannabinoid CB1 receptor [1] is given as 82%. The IC50 at human CB1 receptor (U373MG cells naturally expressing the human CB1 receptor, intracellular cyclic AMP, read-out: IC50) amounted to 6 nM. Besides, at cannabinoid CB1 receptor [2], the percentage inhibition is given as 28%.
Compound `CS(=O)(=O)N(c1cccc(C(=O)Nc2ccccn2)c1)C1CN(C(c2ccc(Cl)cc2)c2ccc(Cl)cc2)C1` [Compound 7, 3-[{1-[Bis(4-chlorophenyl)methyl]azetidin-3-yl}(methylsulphonyl)amino]-N-(pyridin-2-yl)benzamide] displayed a melting point of 202 °C. Besides, at cannabinoid CB1 receptor [1], the percentages of inhibition was determined as 68%. The percentage inhibition on cannabinoid CB1 receptor [2] was determined as 32%.
The compound `CC(NC(=O)c1cc(F)cc(N(C2CN(C(c3ccc(Cl)cc3)c3ccc(Cl)cc3)C2)S(C)(=O)=O)c1)c1ccccn1` (stereo not drawn) [Compound 39] returned a percentages of inhibition on cannabinoid CB1 receptor [1] of 66%. On human CB1 receptor, this compound yielded an IC50 of 33 nM.

Source of the values: US20110152236A1 (SANOFI-AVENTIS, priority 2008, published 2011).
